From patent publication US9926321B2, “Hsp90 inhibitors” (Sloan-Kettering Institute for Cancer Research, priority 2011, dated 2018)

How the values were obtained:
[1] = tested on: Hsp90; assay: Hsp90 binding assay (fluorescence polarization, cy3B-GM displacement), human cancer cell lysate; conditions: fluorescence polarization, cy3B-GM displacement; the table does not say which lysate (SKBr3 or JNPL3)
Method: (§1) For the binding studies, fluorescence polarization (FP) assays w-re performed similarly as was previously reported [Du et al. (2007) “High-throughput screening fluorescence polarization assay for tumor-specific Hsp90” J. Biomol. Screen 12:915-924]. Briefly, FP measurements were performed on an Analyst GT instrument (Molecular Devices, Sunnyvale, Calif.). Measurements were taken in black 96-well microtiter plates (Corning #3650) where both the excitation and the emission occurred from the top of the well. A stock of 10 μM cy3B-GM was prepared in DMSO and diluted with HFB buffer (20 mM Hepes (K), pH 7.3, 50 mM KCl, 2 mM DTT, 5 mM MgCl2, 20 mM Na2MoO4, and 0.01% NP40 with 0.1 mg/mL BGG). The test compounds were dissolved in DMSO and added at several concentrations to the HFB assay buffer containing both 6 nM cy3B-GM and transgenic mouse brain lysate (6 μg JNPL3 lysate) or human cancer cell lysate (3 μg SKBr3 lysate) in a final volume of 100 μL. Drugs were added to triplicate wells. Free cy3B-GM (6 nM cy3B-GM), bound cy3B-GM (6 nM cy3B-GM+lysate, as indicated above) and buffer only containing wells (background) were included as controls in each plate. Plates were incubated on a shake at 4° C., and polarization values measured at 24 h. Percentage inhibition was calculated as follows: (% Control)=100−((mPc−mPf)/(mPb−mPf))×100, where mPc is the recorded mP from compound wells, mPf is the average recorded mP from cy3B-GM-only wells, and mPb is the average recorded mP from wells containing both cy3B-GM and lysate, and plotted against values of competitor concentrations. The inhibitor concentration at which 50% of bound cy3B-GM was displaced was obtained by fitting the data using a nonlinear regression analysis as implemented in Prism 4.0 (GraphPad Software).

[2] = tested on: Hsp90 (SKBr3 lysate); assay: as above; conditions: lysate not given
Method: as §1

[3] = target: T1, hERG (Homo sapiens, UniProt Q12809); assay: hERG fluorescence polarization assay (Predictor hERG kit); format: binding; conditions: Predictor hERG fluorescence polarization, displacement of tracer red, read after 4 hrs; read-out: hERG assay
T1 construct: purchased Invitrogen PV5365
Method: hERG Fluorescence Polarization Assay:
Following the manufacturer's protocol, the hERG assay was performed using Predictor hERG Fluorescence Polarization Assay kit (catalog no. PV5365) from Invitrogen. Briefly, FP measurements were performed on an Analyst GT instrument (Molecular Devices, Sunnyvale, Calif.). Measurements were taken in black 384-well plates (Corning #3677), where both the excitation and the emission occurred from the top of the well. The test compounds were dissolved in DMSO and added at several concentrations to the Predictor hERG FP assay buffer containing 4 nM Predictor hERG tracer red and 10 μL of Predictor hERG membrane in a final volume of 20 μL. Drugs were added to triplicate wells. E-4031 as positive control was included in each plate. Plates were then kept on a shaker at room temperature and polarization values were measured after 4 hrs. The inhibition concentration at which 50% of tracer red gets displaced was obtained by fitting the data using a nonlinear regression analysis as implemented in Prism 5.0 (GraphPad Software).

T1 sequence (Q12809 whole entry): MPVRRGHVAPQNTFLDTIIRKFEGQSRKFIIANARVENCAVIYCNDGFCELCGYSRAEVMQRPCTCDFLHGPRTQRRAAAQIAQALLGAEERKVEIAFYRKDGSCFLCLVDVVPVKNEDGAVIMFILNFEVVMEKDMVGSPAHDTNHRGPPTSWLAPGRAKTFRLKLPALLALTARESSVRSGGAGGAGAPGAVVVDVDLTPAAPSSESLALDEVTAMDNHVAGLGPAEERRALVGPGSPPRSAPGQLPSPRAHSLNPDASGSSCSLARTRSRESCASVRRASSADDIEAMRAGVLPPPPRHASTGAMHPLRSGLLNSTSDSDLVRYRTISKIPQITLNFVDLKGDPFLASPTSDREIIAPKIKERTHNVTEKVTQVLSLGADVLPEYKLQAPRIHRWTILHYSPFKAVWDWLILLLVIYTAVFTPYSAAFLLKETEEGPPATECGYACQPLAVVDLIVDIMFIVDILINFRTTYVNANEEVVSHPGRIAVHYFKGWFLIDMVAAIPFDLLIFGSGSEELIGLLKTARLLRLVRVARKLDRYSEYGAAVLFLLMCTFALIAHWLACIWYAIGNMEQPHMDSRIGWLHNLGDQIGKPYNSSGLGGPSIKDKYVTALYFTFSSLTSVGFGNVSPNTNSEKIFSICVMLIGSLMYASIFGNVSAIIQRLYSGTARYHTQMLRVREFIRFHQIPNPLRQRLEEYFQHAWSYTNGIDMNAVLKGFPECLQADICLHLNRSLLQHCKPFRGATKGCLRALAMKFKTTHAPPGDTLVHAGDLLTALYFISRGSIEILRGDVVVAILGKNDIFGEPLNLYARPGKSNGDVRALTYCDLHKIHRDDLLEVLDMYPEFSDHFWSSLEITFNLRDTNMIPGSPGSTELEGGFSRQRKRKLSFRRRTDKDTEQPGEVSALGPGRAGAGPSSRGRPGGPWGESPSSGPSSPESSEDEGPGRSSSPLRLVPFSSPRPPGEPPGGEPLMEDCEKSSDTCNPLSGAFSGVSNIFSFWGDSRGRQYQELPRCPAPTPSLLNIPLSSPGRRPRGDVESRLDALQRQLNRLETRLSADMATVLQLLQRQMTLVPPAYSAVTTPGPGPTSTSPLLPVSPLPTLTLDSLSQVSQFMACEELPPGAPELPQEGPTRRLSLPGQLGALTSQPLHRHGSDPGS

IC50 [1] [µM]	Compound	Hsp90 binding affinity (in words, referring to Table 12) [2]	IC50 [3] [µM]
0.0262	CC(C)(C)[S+]([O-])NCCCn1c(Cc2cc3c(cc2I)OCO3)nc2c(N)nc(F)nc21 (stereo not drawn) [Compound 4A-26, N-(3-(6-amino-2-fluoro-8-((6-iodobenzo[d][1,3]dioxol-5-yl)methyl)-9H-purin-9-yl)propyl)-2-methylpropane-2-sulfinamide]	high level of binding affinity	> 100
0.024	Nc1nc(F)nc2c1nc(Cc1cc3c(cc1I)OCO3)n2CCCNS(=O)(=O)C1CC1 [Compound 4A-28, N-(3-(6-amino-2-fluoro-8-((6-iodobenzo[d][1,3]dioxol-5-yl)methyl)-9H-purin-9-yl)propyl)cyclopropane-sulfonamide]	high level of binding affinity	> 100
0.0331	CC(C)(C)C(=O)NCCCn1c(Cc2cc3c(cc2I)OCO3)nc2c(N)nc(F)nc21 [Compound 4A-43, N-{3-[6-Amino-2-fluoro-8-(6-iodo-benzo[1,3]dioxol-5-ylmethyl)-purin-9-yl]-propyl}-2,2-dimethyl-propionamide]	high level of binding affinity	> 100
0.02	Nc1nc(F)nc2c1nc(Cc1cc3c(cc1I)OCO3)n2CCCNC(=O)C1CC1 [Compound 4A-45, Cyclopropanecarboxylic acid {3-[6-amino-2-fluoro-8-(6-iodo-benzo[1,3]dioxol-5-ylmethyl)-purin-9-yl]-propyl}-amide]	high level of binding affinity	> 100
